Columns and labels:
Assay in all cases: KINOMEscan
Format in all cases: binding
Conditions in all cases: read-out: % control activity remaining
[1] = target: T1, ACVRL1 (Homo sapiens, UniProt P37023)
T1 construct: purchased Eurofins DiscoverX KINOMEscan

[2] = target: T2, ADCK3 (Homo sapiens, UniProt Q8NI60)
T2 construct: purchased Eurofins DiscoverX KINOMEscan

[3] = target: T3, CDK4-cyclinD3 (Homo sapiens, UniProt P11802)
T3 construct: purchased Eurofins DiscoverX KINOMEscan

[4] = target: T4, EGFR(L861Q) (Homo sapiens, UniProt P00533, L861Q)
T4 construct: purchased Eurofins DiscoverX KINOMEscan

[5] = target: T5, LIMK1 (Homo sapiens, UniProt P53667)
T5 construct: purchased Eurofins DiscoverX KINOMEscan

[6] = target: T6, MET(M1250T) (Homo sapiens, UniProt P08581, M1250T)
T6 construct: purchased Eurofins DiscoverX KINOMEscan

[7] = target: T7, MINK (Homo sapiens, UniProt Q8N4C8)
T7 construct: purchased Eurofins DiscoverX KINOMEscan

[8] = target: T8, PAK4 (Homo sapiens, UniProt O96013)
T8 construct: purchased Eurofins DiscoverX KINOMEscan

[9] = target: T9, PIK3CA(I800L) (Homo sapiens, UniProt P42336, I800L)
T9 construct: purchased Eurofins DiscoverX KINOMEscan

[10] = target: T10, RIPK1 (Homo sapiens, UniProt Q13546)
T10 construct: purchased Eurofins DiscoverX KINOMEscan
T10 sequence (Q13546 1-671): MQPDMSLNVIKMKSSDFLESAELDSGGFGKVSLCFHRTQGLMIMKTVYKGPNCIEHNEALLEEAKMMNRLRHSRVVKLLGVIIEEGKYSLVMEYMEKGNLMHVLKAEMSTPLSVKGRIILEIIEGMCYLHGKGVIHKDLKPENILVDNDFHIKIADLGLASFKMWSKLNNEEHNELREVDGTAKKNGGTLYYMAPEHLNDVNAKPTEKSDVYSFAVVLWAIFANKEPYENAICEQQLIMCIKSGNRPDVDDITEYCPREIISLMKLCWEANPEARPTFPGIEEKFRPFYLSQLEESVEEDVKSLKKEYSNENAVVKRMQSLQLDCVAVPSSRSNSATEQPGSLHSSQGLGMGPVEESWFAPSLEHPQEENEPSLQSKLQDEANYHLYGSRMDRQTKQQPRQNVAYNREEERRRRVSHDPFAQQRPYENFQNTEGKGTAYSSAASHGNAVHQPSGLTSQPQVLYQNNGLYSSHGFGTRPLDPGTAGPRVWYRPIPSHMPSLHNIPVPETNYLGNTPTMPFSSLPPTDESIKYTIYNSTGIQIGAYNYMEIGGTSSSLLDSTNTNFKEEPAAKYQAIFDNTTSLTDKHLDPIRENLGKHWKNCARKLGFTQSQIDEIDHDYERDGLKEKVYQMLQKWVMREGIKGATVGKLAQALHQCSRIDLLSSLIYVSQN

[11] = target: T11, RSK2(Kin.Dom.2-C-terminal) (Homo sapiens, UniProt P51812)
T11 construct: RSK2(Kin.Dom.2-C-terminal); purchased Eurofins DiscoverX KINOMEscan

[12] = target: T12, SBK1 (Homo sapiens, UniProt Q52WX2)
T12 construct: purchased Eurofins DiscoverX KINOMEscan

[13] = target: T13, ULK2 (Homo sapiens, UniProt Q8IYT8)
T13 construct: purchased Eurofins DiscoverX KINOMEscan
T13 sequence (Q8IYT8 1-1036): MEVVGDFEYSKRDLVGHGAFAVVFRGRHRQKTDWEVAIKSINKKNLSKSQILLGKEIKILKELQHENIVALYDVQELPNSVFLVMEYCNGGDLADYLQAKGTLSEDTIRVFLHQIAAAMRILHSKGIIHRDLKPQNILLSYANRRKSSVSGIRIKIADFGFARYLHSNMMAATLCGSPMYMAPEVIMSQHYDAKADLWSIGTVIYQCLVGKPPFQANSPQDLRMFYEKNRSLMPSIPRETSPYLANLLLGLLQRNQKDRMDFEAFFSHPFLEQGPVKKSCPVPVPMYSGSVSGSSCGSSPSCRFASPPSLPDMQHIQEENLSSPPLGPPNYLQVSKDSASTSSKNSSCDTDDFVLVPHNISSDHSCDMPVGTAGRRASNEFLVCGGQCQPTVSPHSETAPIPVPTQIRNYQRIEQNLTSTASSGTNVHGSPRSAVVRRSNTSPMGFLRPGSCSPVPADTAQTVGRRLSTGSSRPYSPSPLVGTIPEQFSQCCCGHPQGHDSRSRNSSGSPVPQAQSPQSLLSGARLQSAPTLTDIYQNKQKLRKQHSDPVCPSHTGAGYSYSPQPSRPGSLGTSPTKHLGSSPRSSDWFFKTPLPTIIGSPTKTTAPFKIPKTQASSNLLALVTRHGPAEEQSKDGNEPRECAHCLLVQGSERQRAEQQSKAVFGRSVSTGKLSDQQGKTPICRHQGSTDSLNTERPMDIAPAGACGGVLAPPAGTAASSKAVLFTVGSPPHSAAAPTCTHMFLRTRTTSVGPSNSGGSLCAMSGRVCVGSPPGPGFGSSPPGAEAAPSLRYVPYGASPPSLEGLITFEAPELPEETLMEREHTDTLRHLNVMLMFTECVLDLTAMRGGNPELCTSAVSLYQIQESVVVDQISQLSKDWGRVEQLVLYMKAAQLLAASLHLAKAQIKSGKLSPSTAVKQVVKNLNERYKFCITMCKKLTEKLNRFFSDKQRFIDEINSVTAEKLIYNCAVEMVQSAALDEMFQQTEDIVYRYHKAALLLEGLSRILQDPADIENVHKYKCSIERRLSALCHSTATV

T12 sequence (Q52WX2 whole entry): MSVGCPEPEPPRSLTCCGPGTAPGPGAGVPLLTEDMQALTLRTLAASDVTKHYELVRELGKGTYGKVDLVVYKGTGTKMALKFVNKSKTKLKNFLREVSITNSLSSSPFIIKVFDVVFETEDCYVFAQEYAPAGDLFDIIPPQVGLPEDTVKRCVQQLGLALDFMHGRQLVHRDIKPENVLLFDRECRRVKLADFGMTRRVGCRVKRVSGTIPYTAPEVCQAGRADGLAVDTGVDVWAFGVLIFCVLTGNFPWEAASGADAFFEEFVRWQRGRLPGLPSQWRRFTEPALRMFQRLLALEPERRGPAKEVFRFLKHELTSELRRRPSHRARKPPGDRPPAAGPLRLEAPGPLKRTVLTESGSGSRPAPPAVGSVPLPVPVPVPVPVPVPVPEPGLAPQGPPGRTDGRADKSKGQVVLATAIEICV
T8 sequence (O96013 whole entry): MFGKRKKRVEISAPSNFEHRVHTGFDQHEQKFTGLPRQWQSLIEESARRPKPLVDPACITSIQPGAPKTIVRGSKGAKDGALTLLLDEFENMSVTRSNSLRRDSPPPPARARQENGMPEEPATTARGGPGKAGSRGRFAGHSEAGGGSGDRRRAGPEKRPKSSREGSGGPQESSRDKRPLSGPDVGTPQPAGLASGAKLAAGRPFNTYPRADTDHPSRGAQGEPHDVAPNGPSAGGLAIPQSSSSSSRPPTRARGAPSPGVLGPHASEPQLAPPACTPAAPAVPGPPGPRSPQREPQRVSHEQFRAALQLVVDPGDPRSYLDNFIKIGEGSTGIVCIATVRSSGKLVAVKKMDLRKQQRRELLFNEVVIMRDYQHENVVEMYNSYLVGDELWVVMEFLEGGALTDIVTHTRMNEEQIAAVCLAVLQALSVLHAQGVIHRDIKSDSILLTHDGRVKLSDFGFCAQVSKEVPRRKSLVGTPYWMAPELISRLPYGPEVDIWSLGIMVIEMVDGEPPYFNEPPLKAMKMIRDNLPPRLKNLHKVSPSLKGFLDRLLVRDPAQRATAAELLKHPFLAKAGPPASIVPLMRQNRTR
T9 sequence (P42336 whole entry I800L): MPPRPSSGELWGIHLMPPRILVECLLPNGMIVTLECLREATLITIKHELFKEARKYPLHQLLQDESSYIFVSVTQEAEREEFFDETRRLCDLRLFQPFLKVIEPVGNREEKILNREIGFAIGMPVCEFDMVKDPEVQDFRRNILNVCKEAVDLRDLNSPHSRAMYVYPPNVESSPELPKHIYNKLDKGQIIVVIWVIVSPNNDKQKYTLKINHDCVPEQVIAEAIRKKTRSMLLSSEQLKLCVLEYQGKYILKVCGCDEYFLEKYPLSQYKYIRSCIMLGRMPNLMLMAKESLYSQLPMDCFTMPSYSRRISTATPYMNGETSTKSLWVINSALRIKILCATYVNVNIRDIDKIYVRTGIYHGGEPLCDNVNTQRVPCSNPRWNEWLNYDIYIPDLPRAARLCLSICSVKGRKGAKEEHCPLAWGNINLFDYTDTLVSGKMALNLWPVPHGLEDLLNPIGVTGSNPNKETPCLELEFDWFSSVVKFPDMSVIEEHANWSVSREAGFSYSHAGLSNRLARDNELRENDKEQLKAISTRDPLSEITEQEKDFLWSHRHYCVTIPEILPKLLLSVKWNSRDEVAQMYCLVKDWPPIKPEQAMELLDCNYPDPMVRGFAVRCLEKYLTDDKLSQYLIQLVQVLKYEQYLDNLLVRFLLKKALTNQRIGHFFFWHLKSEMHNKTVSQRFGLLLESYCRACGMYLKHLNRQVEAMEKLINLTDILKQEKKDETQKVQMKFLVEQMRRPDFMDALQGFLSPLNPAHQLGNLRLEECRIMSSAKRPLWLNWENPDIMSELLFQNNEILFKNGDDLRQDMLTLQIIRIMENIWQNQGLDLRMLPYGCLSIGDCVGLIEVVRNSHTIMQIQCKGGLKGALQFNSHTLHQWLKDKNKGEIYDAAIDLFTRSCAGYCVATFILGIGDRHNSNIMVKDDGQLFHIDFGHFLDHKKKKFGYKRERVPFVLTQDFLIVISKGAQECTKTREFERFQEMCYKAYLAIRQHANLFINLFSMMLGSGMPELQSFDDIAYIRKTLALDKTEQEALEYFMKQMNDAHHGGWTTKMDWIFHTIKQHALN
T3 sequence (P11802 whole entry): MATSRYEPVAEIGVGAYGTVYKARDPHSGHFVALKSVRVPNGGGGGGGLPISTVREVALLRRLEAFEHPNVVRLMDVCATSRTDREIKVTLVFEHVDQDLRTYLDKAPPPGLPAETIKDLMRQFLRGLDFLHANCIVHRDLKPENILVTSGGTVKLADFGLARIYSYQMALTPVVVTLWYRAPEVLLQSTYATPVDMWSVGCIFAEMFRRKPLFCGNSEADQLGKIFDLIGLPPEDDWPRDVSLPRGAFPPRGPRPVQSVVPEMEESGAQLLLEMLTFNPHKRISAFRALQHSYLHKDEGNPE
T3 sequence (P30281 whole entry partner): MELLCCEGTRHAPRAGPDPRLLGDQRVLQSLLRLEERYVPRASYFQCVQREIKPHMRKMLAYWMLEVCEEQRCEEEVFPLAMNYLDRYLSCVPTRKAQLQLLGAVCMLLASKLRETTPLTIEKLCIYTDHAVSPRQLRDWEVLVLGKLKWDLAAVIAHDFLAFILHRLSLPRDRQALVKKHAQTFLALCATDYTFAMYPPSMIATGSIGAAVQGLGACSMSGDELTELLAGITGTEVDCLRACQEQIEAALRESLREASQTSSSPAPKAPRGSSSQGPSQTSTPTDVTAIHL
T2 sequence (Q8NI60 163-647): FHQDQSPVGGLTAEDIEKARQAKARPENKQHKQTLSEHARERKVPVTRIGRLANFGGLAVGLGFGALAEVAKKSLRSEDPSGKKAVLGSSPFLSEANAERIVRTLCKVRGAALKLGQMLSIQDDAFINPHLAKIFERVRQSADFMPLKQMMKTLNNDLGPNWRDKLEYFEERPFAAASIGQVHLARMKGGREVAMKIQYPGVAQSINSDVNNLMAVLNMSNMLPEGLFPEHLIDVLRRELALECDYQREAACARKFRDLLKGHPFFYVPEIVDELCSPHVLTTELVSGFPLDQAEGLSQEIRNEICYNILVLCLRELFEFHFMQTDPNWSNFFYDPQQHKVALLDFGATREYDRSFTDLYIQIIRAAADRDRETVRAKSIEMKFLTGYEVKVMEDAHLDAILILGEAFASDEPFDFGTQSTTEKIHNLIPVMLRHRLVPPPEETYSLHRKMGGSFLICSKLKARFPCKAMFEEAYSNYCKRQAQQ
T1 sequence (P37023 22-503): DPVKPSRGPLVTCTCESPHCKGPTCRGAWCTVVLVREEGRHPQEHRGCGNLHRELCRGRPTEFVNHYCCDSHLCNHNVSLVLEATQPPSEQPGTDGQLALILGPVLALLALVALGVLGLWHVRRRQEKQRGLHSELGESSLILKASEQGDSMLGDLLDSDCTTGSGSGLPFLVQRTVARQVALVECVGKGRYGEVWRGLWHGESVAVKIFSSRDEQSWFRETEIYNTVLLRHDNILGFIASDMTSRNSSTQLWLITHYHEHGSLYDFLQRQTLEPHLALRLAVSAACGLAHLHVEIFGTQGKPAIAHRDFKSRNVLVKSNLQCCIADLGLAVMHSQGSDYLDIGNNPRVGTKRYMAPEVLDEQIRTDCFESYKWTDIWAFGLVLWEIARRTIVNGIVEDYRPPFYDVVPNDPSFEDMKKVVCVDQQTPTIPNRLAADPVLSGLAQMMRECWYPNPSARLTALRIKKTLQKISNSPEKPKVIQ
T7 sequence (Q8N4C8 whole entry): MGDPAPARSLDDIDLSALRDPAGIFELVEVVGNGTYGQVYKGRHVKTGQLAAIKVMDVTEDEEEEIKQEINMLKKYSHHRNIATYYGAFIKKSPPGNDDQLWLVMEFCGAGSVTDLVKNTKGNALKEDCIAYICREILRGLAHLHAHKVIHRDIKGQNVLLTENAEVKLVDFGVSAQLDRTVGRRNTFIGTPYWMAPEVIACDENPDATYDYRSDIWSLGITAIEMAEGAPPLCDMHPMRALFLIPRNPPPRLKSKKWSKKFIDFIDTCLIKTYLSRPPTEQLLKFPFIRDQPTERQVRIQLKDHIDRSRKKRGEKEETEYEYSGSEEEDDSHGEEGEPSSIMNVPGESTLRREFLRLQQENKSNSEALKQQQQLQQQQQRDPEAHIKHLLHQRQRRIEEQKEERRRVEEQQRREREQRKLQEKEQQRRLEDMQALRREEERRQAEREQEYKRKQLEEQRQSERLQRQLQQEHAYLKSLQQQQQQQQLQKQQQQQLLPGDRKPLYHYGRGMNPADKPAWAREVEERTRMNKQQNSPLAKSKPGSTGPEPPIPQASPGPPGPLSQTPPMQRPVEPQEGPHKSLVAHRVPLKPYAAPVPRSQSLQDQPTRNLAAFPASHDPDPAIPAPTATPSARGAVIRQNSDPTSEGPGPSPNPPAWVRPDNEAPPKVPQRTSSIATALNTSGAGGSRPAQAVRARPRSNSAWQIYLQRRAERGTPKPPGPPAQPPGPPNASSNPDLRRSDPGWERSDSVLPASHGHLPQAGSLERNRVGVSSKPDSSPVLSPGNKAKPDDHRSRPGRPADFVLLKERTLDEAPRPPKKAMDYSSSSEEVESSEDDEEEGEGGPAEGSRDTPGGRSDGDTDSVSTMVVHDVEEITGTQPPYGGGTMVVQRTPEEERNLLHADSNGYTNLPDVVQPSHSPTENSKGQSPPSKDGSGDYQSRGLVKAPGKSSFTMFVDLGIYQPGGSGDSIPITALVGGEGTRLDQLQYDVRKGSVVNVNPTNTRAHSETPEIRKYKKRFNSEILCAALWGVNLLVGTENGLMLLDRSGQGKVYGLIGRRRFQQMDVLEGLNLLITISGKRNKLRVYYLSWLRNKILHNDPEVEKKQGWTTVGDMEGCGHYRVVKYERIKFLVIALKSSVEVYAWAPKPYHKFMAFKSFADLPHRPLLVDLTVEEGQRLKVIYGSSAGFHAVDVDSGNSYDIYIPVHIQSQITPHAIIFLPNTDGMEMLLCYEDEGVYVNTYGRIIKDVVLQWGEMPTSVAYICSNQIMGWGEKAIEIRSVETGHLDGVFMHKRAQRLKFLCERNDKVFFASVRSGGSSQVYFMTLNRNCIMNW

| Compound | remaining binding at 1 µM [1] | remaining binding at 1 µM [2] | remaining binding at 1 µM [3] | remaining binding at 1 µM [4] | remaining binding at 1 µM [5] | remaining binding at 1 µM [6] | remaining binding at 1 µM [7] | remaining binding at 1 µM [8] | remaining binding at 1 µM [9] | remaining binding at 1 µM [10] | remaining binding at 1 µM [11] | remaining binding at 1 µM [12] | remaining binding at 1 µM [13] |
| --- | --- | --- | --- | --- | --- | --- | --- | --- | --- | --- | --- | --- | --- |
| Clc1cc(NCC2CC2)c2ncc(-c3ccc4[nH]ncc4c3)n2n1 [compound 2, 6-Chloro-N-(cyclopropylmethyl)-3-(1H-indazol-5-yl)imidazo[1,2-b]pyridazin-8-amine] | 98% | 79% | 78% | 82% | 100% | 89% | 72% | 79% | 83% | 91% | 89% | 87% | 98% |
| O=C(CN1CCOCC1)N[C@H]1CC[C@H](Nc2cc(Cl)nn3c(-c4ccc5[nH]ncc5c4)cnc23)CC1 [compound 26] | 100% | 88% | 100% | 100% | 97% | 82% | 57% | 93% | 88% | 74% | 100% | 89% | 94% |
| CN1CCC(CNc2cc(Cl)nn3c(-c4cc5nc(Nc6ccccc6)[nH]c5cc4F)cnc23)CC1 [compound 31, 6-Chloro-3-(6-fluoro-2-(phenylamino)-1H-benzo[d]imidazol-5-yl)-N-((1-methylpiperidin-4-yl)methyl)imidazo[1,2-b]pyridazin-8-amine] | 100% | 85% | 97% | 100% | 98% | 98% | 87% | 86% | 58% | 94% | 73% | 77% | 83% |

From article PMC6437697 (Journal of Medicinal Chemistry, 2019)
